According to patent US20080051466A1, “Isoalpha acid based protein kinase modulation cancer treatment” (Metaproteomics, LLC, priority 2006, published 2008):

Experiments:
Experiment in all cases: KinaseProfiler Assay
Format in all cases: biochemical
Abl(T315I) = Abl(T315I) (Homo sapiens, UniProt P00519, T315I); conditions: read-out: Abl(T315I), % of Control
BTK = BTK (Homo sapiens, UniProt Q06187); conditions: read-out: BTK, % of Control
CDK2/cyclinE = CDK2/cyclinE (Homo sapiens, UniProt P24941); conditions: read-out: CDK2/cyclinE, % of Control
EphB1 = biological target: T1, EphB1 (Homo sapiens, UniProt P54762); conditions: read-out: EphB1, % of Control
T1 sequence (P54762 18-984): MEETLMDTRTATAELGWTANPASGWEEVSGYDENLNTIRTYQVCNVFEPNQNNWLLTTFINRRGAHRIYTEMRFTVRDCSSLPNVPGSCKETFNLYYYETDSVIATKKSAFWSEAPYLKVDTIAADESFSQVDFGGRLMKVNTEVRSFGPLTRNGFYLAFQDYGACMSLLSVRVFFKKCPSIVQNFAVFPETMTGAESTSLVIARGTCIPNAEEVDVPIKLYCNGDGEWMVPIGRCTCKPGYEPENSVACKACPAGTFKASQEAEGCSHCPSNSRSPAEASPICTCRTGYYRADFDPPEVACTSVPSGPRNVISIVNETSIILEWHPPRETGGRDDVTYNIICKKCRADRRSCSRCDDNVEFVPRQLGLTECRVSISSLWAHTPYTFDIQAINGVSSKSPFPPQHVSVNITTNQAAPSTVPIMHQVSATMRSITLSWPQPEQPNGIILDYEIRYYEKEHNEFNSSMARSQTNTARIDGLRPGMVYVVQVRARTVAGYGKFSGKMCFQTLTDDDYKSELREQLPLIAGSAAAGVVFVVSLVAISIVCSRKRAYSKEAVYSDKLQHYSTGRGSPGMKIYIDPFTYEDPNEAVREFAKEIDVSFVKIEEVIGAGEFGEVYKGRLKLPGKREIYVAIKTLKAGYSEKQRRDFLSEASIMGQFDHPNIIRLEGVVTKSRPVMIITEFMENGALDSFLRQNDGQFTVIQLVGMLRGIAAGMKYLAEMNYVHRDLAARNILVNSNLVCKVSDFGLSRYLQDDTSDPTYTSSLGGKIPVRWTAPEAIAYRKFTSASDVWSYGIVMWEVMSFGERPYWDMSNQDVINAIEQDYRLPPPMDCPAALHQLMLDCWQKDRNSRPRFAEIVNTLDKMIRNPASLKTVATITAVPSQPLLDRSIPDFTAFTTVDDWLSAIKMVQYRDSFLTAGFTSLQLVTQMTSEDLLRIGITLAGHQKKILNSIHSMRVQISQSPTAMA

IR = IR (Homo sapiens, UniProt P06213); conditions: read-out: IR, % of Control
PAK6 = PAK6 (Homo sapiens, UniProt Q9NQU5); conditions: read-out: PAK6, % of Control
PI3K gamma = PI3K gamma (Homo sapiens, UniProt P48736); conditions: 50 μg/ml
PKCα = PKCα (Homo sapiens, UniProt P17252); conditions: read-out: PKCα, % of Control
SGK2 = biological target: T2, SGK2 (Homo sapiens, UniProt Q9HBY8); conditions: read-out: SGK2, % of Control
T2 sequence (Q9HBY8 1-367): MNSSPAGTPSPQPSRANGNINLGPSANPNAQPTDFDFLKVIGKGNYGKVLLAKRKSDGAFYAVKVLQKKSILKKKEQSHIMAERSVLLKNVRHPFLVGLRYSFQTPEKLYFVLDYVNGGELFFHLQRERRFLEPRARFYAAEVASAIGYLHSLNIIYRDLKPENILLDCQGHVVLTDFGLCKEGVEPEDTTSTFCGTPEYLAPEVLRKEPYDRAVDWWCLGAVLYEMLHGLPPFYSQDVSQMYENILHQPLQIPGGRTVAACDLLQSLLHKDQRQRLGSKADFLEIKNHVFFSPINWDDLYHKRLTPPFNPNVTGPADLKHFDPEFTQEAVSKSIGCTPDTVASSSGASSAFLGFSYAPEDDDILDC

CK1γ1 = CK1γ1 (Homo sapiens, UniProt Q9HCP0); conditions: read-out: CK1γ1, % of Control
PhKγ2 = biological target: T3, PhKγ2 (Homo sapiens, UniProt P15735); conditions: read-out: PhKγ2, % of Control
T3 sequence (P15735 1-406): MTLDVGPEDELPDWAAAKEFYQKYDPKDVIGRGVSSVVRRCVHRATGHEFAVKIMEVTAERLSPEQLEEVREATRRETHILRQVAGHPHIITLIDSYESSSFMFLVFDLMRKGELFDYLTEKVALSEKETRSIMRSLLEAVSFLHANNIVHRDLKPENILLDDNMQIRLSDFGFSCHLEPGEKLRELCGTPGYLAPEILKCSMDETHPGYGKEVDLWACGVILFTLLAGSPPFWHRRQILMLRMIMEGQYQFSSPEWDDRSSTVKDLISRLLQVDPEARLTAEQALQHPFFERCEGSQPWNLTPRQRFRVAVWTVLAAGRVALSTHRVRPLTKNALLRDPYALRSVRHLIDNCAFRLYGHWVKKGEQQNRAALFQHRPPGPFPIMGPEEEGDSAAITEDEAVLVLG

CK1γ1, sequence (Q9HCP0 whole entry): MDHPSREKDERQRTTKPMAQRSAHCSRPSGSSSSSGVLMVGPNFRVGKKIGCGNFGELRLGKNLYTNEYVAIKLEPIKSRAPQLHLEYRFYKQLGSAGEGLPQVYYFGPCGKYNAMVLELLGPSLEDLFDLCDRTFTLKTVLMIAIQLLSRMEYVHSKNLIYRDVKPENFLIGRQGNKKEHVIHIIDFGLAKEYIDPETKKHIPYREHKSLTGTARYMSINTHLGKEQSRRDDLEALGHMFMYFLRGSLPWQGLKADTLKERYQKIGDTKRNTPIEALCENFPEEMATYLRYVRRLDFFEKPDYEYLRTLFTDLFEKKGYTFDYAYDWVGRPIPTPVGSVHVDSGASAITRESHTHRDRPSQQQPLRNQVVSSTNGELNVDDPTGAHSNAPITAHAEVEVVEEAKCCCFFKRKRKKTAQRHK
BTK, sequence (Q06187 whole entry): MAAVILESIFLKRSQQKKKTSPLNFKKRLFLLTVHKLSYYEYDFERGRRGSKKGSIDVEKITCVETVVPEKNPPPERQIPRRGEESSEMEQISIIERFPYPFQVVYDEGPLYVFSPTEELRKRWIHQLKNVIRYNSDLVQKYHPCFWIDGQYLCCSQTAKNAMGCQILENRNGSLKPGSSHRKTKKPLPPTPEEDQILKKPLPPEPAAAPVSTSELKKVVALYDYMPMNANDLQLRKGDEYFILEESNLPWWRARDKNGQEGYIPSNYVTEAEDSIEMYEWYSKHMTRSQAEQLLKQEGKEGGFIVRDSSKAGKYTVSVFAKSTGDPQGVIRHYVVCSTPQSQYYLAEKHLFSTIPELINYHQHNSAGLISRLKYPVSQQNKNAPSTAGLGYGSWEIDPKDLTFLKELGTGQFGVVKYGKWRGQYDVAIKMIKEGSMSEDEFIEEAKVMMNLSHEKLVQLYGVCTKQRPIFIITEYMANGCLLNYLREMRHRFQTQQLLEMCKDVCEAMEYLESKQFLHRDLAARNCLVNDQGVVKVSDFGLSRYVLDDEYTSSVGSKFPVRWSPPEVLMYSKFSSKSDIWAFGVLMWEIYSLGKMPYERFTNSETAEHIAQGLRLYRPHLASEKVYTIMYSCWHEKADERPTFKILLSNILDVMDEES
PAK6, sequence (Q9NQU5 whole entry): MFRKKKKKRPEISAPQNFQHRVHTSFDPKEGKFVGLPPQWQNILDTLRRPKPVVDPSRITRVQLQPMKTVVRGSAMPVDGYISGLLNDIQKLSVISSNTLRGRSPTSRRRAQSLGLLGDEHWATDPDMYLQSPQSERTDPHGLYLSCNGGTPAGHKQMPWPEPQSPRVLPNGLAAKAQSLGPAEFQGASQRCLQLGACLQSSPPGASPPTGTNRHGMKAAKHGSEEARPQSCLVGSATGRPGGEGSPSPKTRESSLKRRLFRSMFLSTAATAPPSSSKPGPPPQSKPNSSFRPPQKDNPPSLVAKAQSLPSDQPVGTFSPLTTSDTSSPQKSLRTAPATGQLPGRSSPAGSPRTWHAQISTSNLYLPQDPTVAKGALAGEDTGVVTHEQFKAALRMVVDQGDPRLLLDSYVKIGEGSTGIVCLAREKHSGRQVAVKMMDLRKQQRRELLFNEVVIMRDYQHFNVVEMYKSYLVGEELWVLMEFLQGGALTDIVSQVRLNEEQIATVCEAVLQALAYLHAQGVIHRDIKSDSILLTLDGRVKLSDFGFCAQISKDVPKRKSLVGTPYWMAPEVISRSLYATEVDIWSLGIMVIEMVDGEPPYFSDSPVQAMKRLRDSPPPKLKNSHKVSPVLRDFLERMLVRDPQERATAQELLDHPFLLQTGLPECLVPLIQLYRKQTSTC
IR, sequence (P06213 28-1382): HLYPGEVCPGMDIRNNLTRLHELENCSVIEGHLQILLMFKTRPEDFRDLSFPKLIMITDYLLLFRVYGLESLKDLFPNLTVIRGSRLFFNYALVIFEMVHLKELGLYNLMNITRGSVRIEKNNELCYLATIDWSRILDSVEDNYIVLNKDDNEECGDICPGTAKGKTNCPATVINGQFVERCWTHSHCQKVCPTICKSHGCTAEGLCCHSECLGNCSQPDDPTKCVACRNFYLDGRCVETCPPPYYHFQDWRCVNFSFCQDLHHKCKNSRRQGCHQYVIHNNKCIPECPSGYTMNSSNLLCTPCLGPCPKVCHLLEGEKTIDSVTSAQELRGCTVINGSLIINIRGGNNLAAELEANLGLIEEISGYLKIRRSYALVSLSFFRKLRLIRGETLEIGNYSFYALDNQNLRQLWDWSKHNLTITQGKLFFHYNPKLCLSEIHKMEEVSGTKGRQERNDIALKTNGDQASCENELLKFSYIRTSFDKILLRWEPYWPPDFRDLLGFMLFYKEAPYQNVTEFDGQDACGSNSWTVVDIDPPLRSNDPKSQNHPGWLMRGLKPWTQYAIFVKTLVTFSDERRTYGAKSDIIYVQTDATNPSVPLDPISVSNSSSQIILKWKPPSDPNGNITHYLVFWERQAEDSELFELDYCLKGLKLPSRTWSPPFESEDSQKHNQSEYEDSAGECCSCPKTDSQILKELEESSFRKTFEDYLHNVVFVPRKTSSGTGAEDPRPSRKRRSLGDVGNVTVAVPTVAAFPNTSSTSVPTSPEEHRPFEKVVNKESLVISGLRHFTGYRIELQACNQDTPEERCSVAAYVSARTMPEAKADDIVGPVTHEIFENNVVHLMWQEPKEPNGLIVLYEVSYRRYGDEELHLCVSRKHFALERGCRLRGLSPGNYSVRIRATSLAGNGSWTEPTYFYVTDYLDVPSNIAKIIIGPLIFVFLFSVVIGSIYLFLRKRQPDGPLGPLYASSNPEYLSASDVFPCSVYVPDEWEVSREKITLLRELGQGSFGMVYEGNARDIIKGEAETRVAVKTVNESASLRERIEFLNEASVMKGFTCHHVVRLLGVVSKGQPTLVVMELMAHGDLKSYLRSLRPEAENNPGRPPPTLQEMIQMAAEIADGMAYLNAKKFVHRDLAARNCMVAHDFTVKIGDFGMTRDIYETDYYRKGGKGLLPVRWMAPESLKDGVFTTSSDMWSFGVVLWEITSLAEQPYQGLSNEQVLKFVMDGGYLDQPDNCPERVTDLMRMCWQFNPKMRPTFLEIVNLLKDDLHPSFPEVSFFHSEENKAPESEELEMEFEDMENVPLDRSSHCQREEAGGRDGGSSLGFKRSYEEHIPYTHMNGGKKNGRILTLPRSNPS
PI3K gamma, sequence (P48736 whole entry): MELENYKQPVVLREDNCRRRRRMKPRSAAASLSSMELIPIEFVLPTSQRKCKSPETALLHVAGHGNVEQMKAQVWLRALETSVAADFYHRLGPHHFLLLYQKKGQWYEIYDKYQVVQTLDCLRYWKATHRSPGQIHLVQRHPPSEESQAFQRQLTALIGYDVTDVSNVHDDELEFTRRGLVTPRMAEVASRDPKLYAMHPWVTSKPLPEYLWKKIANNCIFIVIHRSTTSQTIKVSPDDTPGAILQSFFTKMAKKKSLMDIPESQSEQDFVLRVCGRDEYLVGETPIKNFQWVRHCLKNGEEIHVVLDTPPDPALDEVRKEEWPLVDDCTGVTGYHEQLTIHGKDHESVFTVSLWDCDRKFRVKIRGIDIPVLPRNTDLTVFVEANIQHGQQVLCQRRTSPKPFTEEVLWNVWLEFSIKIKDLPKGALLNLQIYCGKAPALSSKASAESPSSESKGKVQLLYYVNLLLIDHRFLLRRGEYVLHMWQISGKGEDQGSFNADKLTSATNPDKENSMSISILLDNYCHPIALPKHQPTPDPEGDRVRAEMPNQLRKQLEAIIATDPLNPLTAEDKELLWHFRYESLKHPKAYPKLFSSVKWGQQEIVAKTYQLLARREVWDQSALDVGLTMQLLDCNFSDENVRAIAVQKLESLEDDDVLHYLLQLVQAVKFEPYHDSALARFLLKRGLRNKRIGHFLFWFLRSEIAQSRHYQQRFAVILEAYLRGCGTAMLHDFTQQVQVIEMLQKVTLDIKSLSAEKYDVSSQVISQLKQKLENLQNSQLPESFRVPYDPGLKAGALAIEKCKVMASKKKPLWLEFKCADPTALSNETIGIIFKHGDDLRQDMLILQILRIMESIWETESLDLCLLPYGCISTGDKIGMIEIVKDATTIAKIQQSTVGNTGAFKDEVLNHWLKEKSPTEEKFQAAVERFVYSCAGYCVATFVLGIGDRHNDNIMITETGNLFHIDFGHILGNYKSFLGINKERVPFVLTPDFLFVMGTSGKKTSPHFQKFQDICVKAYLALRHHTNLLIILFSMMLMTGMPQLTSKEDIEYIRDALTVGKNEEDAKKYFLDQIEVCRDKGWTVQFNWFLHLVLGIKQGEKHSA

COc1cc(O)c(CC=C(C)C)c(O)c1C(=O)/C=C/c1ccc(O)cc1 [Xanthohumol, xanthohumol]
remaining activity at 1 µg/mL (Abl(T315I); 1 ug/ml): 126%
remaining activity at 5 µg/mL (Abl(T315I); 5 ug/ml): 115%
remaining activity at 25 µg/mL (Abl(T315I); 25 ug/ml): 16%
remaining activity at 1 µg/mL (BTK; 1 ug/ml): 109%
remaining activity at 5 µg/mL (BTK; 5 ug/ml): 57%
remaining activity at 50 µg/mL (BTK; 50 ug/ml): 20%
remaining activity at 1 µg/mL (CDK2/cyclinE; 1 ug/ml): 82%
remaining activity at 5 µg/mL (CDK2/cyclinE; 5 ug/ml): 86%
remaining activity at 25 µg/mL (CDK2/cyclinE; 25 ug/ml): 18%
remaining activity at 1 µg/mL (EphB1; 1 ug/ml): 92%
remaining activity at 25 µg/mL (EphB1; 25 ug/ml): 175%
remaining activity at 50 µg/mL (EphB1; 50 ug/ml): 161%
remaining activity at 1 µg/mL (IR; 1 ug/ml): 120%
remaining activity at 5 µg/mL (IR; 5 ug/ml): 108%
remaining activity at 1 µg/mL (PAK6; 1 ug/ml): 105%
remaining activity at 5 µg/mL (PAK6; 5 ug/ml): 94%
remaining activity at 25 µg/mL (PAK6; 25 ug/ml): 14%
inhibition of PI3K-γ activity (PI3K gamma): more inhibitory to PI3K-γ than to PI3K-β or PI3K-δ
remaining activity at 1 µg/mL (PKCα; 1 ug/ml): 100%
remaining activity at 5 µg/mL (PKCα; 5 ug/ml): 100%
remaining activity at 25 µg/mL (PKCα; 25 ug/ml): 75%
remaining activity at 50 µg/mL (PKCα; 50 ug/ml): 83%
remaining activity at 1 µg/mL (SGK2; 1 ug/ml): 130%
remaining activity at 5 µg/mL (SGK2; 5 ug/ml): 110%
remaining activity at 50 µg/mL (SGK2; 50 ug/ml): -4%
remaining activity at 1 µg/mL (CK1γ1; 1 ug/ml): 101%
remaining activity at 5 µg/mL (CK1γ1; 5 ug/ml): 79%
remaining activity at 25 µg/mL (CK1γ1; 25 ug/ml): 50%
remaining activity at 50 µg/mL (CK1γ1; 50 ug/ml): 26%
remaining activity at 1 µg/mL (PhKγ2; 1 ug/ml): 106%
remaining activity at 5 µg/mL (PhKγ2; 5 ug/ml): 60%
remaining activity at 25 µg/mL (PhKγ2; 25 ug/ml): 11%
remaining activity at 50 µg/mL (PhKγ2; 50 ug/ml): 5%
